Source: patent US9550747B2, “Dapagliflozin crystalline form and preparation method thereof” (Jiangsu Hansoh Pharmaceutical Group Co., Ltd., priority 2014, dated 2017)
Read-outs that look alike come from different tables or passages of the source.

Tests used:
[1] = 30° C.±2° C./RH 65%±5%
Protocol: (§1) The crystal resulting from Example 1 was placed under acceleration conditions for 6 months.
Conditions: 30° C.±2° C./RH 65%±5%
(§2) Package: Two layers of low density polyethylene bag for medicinal use were sealed by hot-melt respectively, and desiccant was added. The bag was sealed and packaged with a pharmaceutical composite film bag of polyester/aluminum/polyamide/cast polypropylene.

[2] = 21° C.±2° C./RH 45%±5%
Protocol: as §1
Conditions: 21° C.±2° C./RH 45%±5%
as §2

[3] = not given; remark: listed apart in the source

Question: With `CCOc1ccc(Cc2cc([C@@H]3O[C@H](CO)[C@@H](O)[C@H](O)[C@H]3O)ccc2Cl)cc1` [Example 1, 2-chloro-5-(β-D-glucopyranosyl-1-yl)-4′-ethoxy-diphenylmethane] as the compound, how does the “HPLC Identification” value ([1]; 1 Month) read?
Answer: Its value is “accordance”.

Question: What about the “Moisture Content (%)” value ([1]; 1 Month) of the same compound?
Answer: The value was 0.82%.

Question: And the “Related Substances Maximum Single Impurity (%)” value ([1]; 1 Month)?
Answer: The value was 0.03%.

Question: And the “Related Substances Total Impurity (%)” value ([1]; 1 Month)?
Answer: The value was 0.10%.

Question: What about the “Specific Rotation” value ([1]; 1 Month) of the same compound?
Answer: The value was “+13.2°”.

Question: And the “Total Content (%)” value ([1]; 1 Month)?
Answer: Its value is 99.6%.

Question: And the XRPD ([1]; 1 Month)?
Answer: The XRPD was “accordance”.

Question: And the “HPLC Identification” value ([1]; 2 Months)?
Answer: The value was “accordance”.

Question: What about the “Moisture Content (%)” value ([1]; 2 Months) of the same compound?
Answer: Its value is 0.81%.

Question: And the “Related Substances Maximum Single Impurity (%)” value ([1]; 2 Months)?
Answer: Its value is 0.03%.

Question: What about the “Related Substances Total Impurity (%)” value ([1]; 2 Months) of the same compound?
Answer: The value was 0.11%.

Question: And the “Specific Rotation” value ([1]; 2 Months)?
Answer: The value was “+13.0°”.

Question: What about the “Total Content (%)” value ([1]; 2 Months) of the same compound?
Answer: Its value is 99.7%.

Question: And the XRPD ([1]; 2 Months)?
Answer: Its XRPD is “accordance”.

Question: What about the “HPLC Identification” value ([1]; 3 Months) of the same compound?
Answer: Its value is “accordance”.

Question: And the “Moisture Content (%)” value ([1]; 3 Months)?
Answer: The value was 0.77%.

Question: What about the “Related Substances Maximum Single Impurity (%)” value ([1]; 3 Months) of the same compound?
Answer: Its value is 0.03%.

Question: And the “Related Substances Total Impurity (%)” value ([1]; 3 Months)?
Answer: Its value is 0.10%.

Question: What about the “Specific Rotation” value ([1]; 3 Months) of the same compound?
Answer: The value was “+13.4°”.

Question: What about the “Total Content (%)” value ([1]; 3 Months) of the same compound?
Answer: Its value is 99.3%.

Question: What about the XRPD ([1]; 3 Months) of the same compound?
Answer: Its XRPD is “accordance”.

Question: And the “HPLC Identification” value ([1]; 6 Months)?
Answer: Its value is “accordance”.

Question: And the “Moisture Content (%)” value ([1]; 6 Months)?
Answer: Its value is 0.81%.

Question: What about the “Related Substances Maximum Single Impurity (%)” value ([1]; 6 Months) of the same compound?
Answer: Its value is 0.03%.

Question: And the “Related Substances Total Impurity (%)” value ([1]; 6 Months)?
Answer: The value was 0.13%.

Question: What about the “Specific Rotation” value ([1]; 6 Months) of the same compound?
Answer: The value was “+13.3°”.

Question: And the “Total Content (%)” value ([1]; 6 Months)?
Answer: The value was 99.5%.

Question: What about the XRPD ([1]; 6 Months) of the same compound?
Answer: The XRPD was “accordance”.

Question: And the “quality indicators of the sample” value ([1]; 6 Months)?
Answer: The value was “did not change significantly”.

Question: And the “HPLC Identification” value ([1]; time 0)?
Answer: Its value is “accordance”.

Question: And the “Moisture Content (%)” value ([1]; time 0)?
Answer: Its value is 0.76%.

Question: What about the “Related Substances Maximum Single Impurity (%)” value ([1]; time 0) of the same compound?
Answer: The value was 0.04%.

Question: And the “Related Substances Total Impurity (%)” value ([1]; time 0)?
Answer: Its value is 0.11%.

Question: What about the “Specific Rotation” value ([1]; time 0) of the same compound?
Answer: Its value is “+13.3°”.

Question: What about the “Total Content (%)” value ([1]; time 0) of the same compound?
Answer: Its value is 99.4%.

Question: What about the XRPD ([1]; time 0) of the same compound?
Answer: The XRPD was “accordance”.

Question: And the “HPLC Identification” value ([2]; 3 Months)?
Answer: The value was “accordance”.

Question: What about the “Moisture Content (%)” value ([2]; 3 Months) of the same compound?
Answer: The value was 0.77%.

Question: What about the “Related Substances Maximum Single Impurity (%)” value ([2]; 3 Months) of the same compound?
Answer: Its value is 0.03%.

Question: And the “Related Substances Total Impurity (%)” value ([2]; 3 Months)?
Answer: Its value is 0.11%.

Question: And the “Specific Rotation” value ([2]; 3 Months)?
Answer: Its value is “+13.1°”.

Question: And the “Total Content (%)” value ([2]; 3 Months)?
Answer: The value was 99.8%.

Question: And the XRPD ([2]; 3 Months)?
Answer: Its XRPD is “accordance”.

Question: What about the “HPLC Identification” value ([2]; 6 Months) of the same compound?
Answer: Its value is “accordance”.

Question: What about the “Moisture Content (%)” value ([2]; 6 Months) of the same compound?
Answer: Its value is 0.80%.

Question: And the “Related Substances Maximum Single Impurity (%)” value ([2]; 6 Months)?
Answer: Its value is 0.03%.

Question: What about the “Related Substances Total Impurity (%)” value ([2]; 6 Months) of the same compound?
Answer: Its value is 0.13%.

Question: What about the “Specific Rotation” value ([2]; 6 Months) of the same compound?
Answer: The value was “+12.9°”.

Question: And the “Total Content (%)” value ([2]; 6 Months)?
Answer: The value was 99.5%.

Question: What about the XRPD ([2]; 6 Months) of the same compound?
Answer: The XRPD was “accordance”.

Question: What about the “quality indicators of the sample” value ([2]; 6 Months) of the same compound?
Answer: Its value is “did not change significantly”.

Question: What about the “HPLC Identification” value ([2]; time 0) of the same compound?
Answer: Its value is “accordance”.

Question: And the “Moisture Content (%)” value ([2]; time 0)?
Answer: Its value is 0.76%.

Question: And the “Related Substances Maximum Single Impurity (%)” value ([2]; time 0)?
Answer: The value was 0.04%.

Question: And the “Related Substances Total Impurity (%)” value ([2]; time 0)?
Answer: The value was 0.11%.

Question: What about the “Specific Rotation” value ([2]; time 0) of the same compound?
Answer: The value was “+13.3°”.

Question: What about the “Total Content (%)” value ([2]; time 0) of the same compound?
Answer: Its value is 99.4%.

Question: What about the XRPD ([2]; time 0) of the same compound?
Answer: The XRPD was “accordance”.

Question: What about the hygroscope (High humidity test 25° C./RH 75%, day 5) of the same compound?
Answer: The hygroscope was 4.83%.

Question: What about the hygroscope (High humidity test 25° C./RH 75%, day 10) of the same compound?
Answer: The hygroscope was 4.84%.

Question: And the hygroscope (High humidity test 25° C./RH 95%, day 5)?
Answer: The hygroscope was 6.09%.

Question: What about the hygroscope (High humidity test 25° C./RH 95%, day 10) of the same compound?
Answer: Its hygroscope is 6.71%.

Question: Which “transformation of the crystal (XRPD)” value ([3]; after grinding) does the source give for `CCOc1ccc(Cc2cc([C@@H]3O[C@H](CO)[C@@H](O)[C@H](O)[C@H]3O)ccc2Cl)cc1` [crystal of the present invention, 2-chloro-5-(β-D-glucopyranosyl-1-yl)-4′-ethoxy-diphenylmethane] here?
Answer: Its value is “does not result in transformation”.

Question: And the “transformation of the crystal (XRPD)” value ([3]; after pressing into a tablet, FIG. 2)?
Answer: Its value is “no transformation”.
